Experimental data reported in US9963467B2, “Boronic acid derivatives and therapeutic uses thereof” (Rempex Pharmaceuticals, Inc., priority 2014, dated 2018).

What was measured:
[1] = system: KP1004 (KPC-2); experiment: Biapenem potentiation (MPC@1), KP1004; details: BLI with biapenem at 1 μg/mL
[2] = system: EC1010 (CMY-6); experiment: Tigemonam potentiation (MPC@4), EC1010; assay type: cell-based; details: BLI with tigemonam at 4 μg/mL
[3] = target: CTX-M-14 (Escherichia coli, UniProt Q9L5C7); experiment: Ki, nitrocefin cleavage by purified enzyme, CTX-M-14; assay type: biochemical; details: nitrocefin reporter substrate; read-out: Ki (CTX-M-14, NCF)
Sequence of CTX-M-14 (Q9L5C7 29-291): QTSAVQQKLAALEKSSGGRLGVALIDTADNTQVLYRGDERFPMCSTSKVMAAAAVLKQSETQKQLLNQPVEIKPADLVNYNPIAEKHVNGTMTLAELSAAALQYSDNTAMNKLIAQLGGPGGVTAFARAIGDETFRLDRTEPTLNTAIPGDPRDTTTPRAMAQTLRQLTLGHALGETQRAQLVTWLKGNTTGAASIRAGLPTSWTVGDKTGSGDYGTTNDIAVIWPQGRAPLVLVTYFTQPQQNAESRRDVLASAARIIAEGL
Outline: (§1)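 Readout: nitrocefin hydrolysis, A490 recorded every 10 sec over 10 min. Enzyme and inhibitor (varied concentrations) preincubated 10 min, RT, in reaction buffer before substrate addition.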

[4] = target: KPC-2 (Klebsiella pneumoniae, UniProt Q9F663); experiment: Ki, nitrocefin cleavage by purified enzyme, KPC-2; assay type: biochemical; details: nitrocefin reporter substrate; read-out: Ki (KPC-2, NCF)
Sequence of KPC-2 (Q9F663 25-293, looked up, species assumed): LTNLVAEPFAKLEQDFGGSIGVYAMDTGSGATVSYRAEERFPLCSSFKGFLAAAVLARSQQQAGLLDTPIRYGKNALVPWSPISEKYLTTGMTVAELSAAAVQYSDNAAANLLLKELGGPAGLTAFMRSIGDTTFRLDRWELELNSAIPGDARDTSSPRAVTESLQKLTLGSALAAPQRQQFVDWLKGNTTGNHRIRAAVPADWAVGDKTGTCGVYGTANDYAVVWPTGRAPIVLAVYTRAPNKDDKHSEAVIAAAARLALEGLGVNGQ
Outline: as §1

[5] = system: ec308 (SHV-5); experiment: Tigemonam potentiation (MPC@4), ec308; assay type: cell-based
[6] = target: Pa AmpC (Pseudomonas aeruginosa, UniProt P24735); experiment: Ki, nitrocefin cleavage by purified enzyme, Pa AmpC; assay type: biochemical; details: nitrocefin reporter substrate; read-out: Ki (Pa AmpC, NCF)
Sequence of Pa AmpC (P24735 27-397): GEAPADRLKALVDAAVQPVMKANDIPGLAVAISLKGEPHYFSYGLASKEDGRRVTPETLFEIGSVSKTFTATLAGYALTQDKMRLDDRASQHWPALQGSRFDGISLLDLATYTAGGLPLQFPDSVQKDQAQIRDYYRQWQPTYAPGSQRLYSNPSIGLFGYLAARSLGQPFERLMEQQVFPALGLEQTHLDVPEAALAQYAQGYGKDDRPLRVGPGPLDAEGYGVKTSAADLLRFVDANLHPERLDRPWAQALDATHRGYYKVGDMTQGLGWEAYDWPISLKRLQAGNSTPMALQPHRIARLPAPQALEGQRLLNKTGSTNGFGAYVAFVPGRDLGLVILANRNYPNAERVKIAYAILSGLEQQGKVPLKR
Outline: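 Nitrocefin hydrolysis by purified β-lactamase is followed at 490 nm every 10 sec for 10 min. Before substrate is added, enzyme sits with varying inhibitor concentrations for 10 min at room temperature. Ki comes from these cleavage profiles.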

[7] = system: KP1004 (KPC-2); experiment: Aztreonam potentiation (MPC@4), KP1004; assay type: cell-based; details: BLI with aztreonam at 4 μg/mL
[8] = Monomer content of pH adjusted aqueous solutions (LC-UV); assay type: physicochemical; details: 1 mg/mL aqueous salt solution, pH adjusted to 7.6 to 8, LC-UV
Description: Boronic acid containing compounds are known to undergo oligomerization. The presence of oligomers can greatly complicate drug development, as they represent new chemical species whose content must be controlled and qualified by testing in toxoicology studies. The monomer content of compounds was evaluated by adjusting aqueous solutions to physiological pH at various concentrations. The monomer content of pH adjusted solutions was measured using LC-UV. Test compounds were weighed out into a 1.5 mL Eppendorf tube. A solution of water was prepared in 1.00 mg/mL, 10.0 mg/mL or 100 mg/mL concentrations of the compound based on active fraction. A volume 20 uL was subtracted to allow room for addition of acid or base to adjust pH. The solution pH was measured. The pH was then adjusted through addition of acid or base as necessary until the reading was in the 7.6 to 8 range. A final pH measurement was made after ensuring all the compound was in solution. The solution was injected onto LC-UV in 0.1 uL to 5 uL volume within less than half an hour after the time the sample was prepared. Elution was done using 0.1% TFA in water for mobile phase A and 0.085% TFA in methanol for mobile phase B on an Excel ACE 5 Super C18 2.1×100 mm column at 0.6 ml/min flow rate with 9 min gradient, 3.9 minute hold at 90% B and 18 minute run time. The absorption was measured at 220, 254 and 300 nm with a 4 nm bandwidth.

[9] = system: KP1005 (CTX-M-14); experiment: Tigemonam potentiation (MPC@4), KP1005; assay type: cell-based; details: BLI with tigemonam at 4 μg/mL
[10] = target: P99 (Enterobacter cloacae, UniProt P05364); experiment: Ki, nitrocefin cleavage by purified enzyme, P99; assay type: biochemical; details: nitrocefin reporter substrate; read-out: Ki (P99, NCF)
Sequence of P99 (P05364 21-381): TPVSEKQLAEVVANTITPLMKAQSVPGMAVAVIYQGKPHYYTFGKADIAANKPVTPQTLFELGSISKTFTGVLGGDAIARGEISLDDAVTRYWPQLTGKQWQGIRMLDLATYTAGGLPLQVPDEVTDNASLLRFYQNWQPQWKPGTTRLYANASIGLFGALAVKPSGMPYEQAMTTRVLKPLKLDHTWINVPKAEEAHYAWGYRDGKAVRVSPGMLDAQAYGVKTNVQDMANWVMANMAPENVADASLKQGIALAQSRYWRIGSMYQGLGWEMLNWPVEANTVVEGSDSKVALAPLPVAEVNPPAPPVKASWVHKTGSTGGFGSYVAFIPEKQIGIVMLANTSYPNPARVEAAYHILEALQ
Outline: as §1

[11] = target: OXA-48 (Klebsiella pneumoniae, UniProt Q6XEC0); experiment: Ki, nitrocefin cleavage by purified enzyme, OXA-48; assay type: biochemical; details: nitrocefin reporter substrate; read-out: Ki (OXA-48, NCF)
Sequence of OXA-48 (Q6XEC0 23-265, looked up, species assumed): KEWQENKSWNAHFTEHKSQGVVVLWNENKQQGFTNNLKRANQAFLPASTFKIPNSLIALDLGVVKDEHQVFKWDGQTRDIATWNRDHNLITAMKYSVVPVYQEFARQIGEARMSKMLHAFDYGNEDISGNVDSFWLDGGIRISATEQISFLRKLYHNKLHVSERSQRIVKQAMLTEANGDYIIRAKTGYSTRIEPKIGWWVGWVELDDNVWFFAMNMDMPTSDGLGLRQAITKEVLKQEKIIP
Outline: as §1

[12] = system: ECL1002; experiment: Aztreonam potentiation (MPC@4), ECL1002; assay type: cell-based; details: BLI with aztreonam at 4 μg/mL
[13] = system: ec302 (TEM-10); experiment: Tigemonam potentiation (MPC@4), ec302; assay type: cell-based
[14] = system: ECL1002; experiment: Tigemonam potentiation (MPC@4), ECL1002; assay type: cell-based; details: BLI with tigemonam at 4 μg/mL
[15] = target: SHV-12 (Klebsiella pneumoniae, UniProt P0AD64, E235K/G234S/L31Q); experiment: Ki, nitrocefin cleavage by purified enzyme, SHV-12; assay type: biochemical; details: nitrocefin reporter substrate; read-out: Ki (SHV-12, NCF)
Sequence of SHV-12 (P0AD64 22-286 L31Q/G234S/E235K): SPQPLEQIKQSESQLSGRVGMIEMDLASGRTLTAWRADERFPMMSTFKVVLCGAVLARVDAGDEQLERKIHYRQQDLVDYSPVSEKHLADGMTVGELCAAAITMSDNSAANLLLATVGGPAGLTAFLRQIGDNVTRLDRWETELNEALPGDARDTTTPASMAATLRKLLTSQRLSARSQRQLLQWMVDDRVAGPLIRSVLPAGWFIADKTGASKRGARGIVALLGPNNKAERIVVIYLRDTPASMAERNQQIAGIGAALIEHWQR
Outline: as §1

[16] = system: KP1010 (SHV-12); experiment: Tigemonam potentiation (MPC@4), KP1010; assay type: cell-based
[17] = system: KP1009 (CTX-M-15); experiment: Tigemonam potentiation (MPC@4), KP1009; assay type: cell-based; details: BLI with tigemonam at 4 μg/mL
[18] = system: ec302 (TEM-10); experiment: Aztreonam potentiation (MPC@4), ec302; assay type: cell-based; details: BLI with aztreonam at 4 μg/mL
[19] = system: EC1010 (CMY-6); experiment: organism not typed; assay type: cell-based
[20] = system: KP1005 (CTX-M-14); experiment: Aztreonam potentiation (MPC@4), KP1005; assay type: cell-based; details: BLI with aztreonam at 4 μg/mL
[21] = system: KP1086 (OXA-48); experiment: Biapenem potentiation (MPC@1), KP1086; details: BLI with biapenem at 1 μg/mL
[22] = system: KP1009 (CTX-M-15); experiment: organism not typed; assay type: cell-based

CSCC(=O)N[C@H]1Cc2ccc(SCC3CCNCC3)c(C(=O)O)c2OB1O [Compound 24, (R)-2-hydroxy-3-(2-(methylthio)acetamido)-7-(piperidin-4-ylmethylthio)-3,4-dihydro-2H-benzo[e][1,2]oxaborinine-8-carboxylic acid]
BPM MPC1 KP1004 KPC-2 [1]: X (MIC of less than 1 μg/mL) | TIG MPC4 CMY-6 EC1010 [2]: Y (MIC of 1 μg/mL to 10 μg/mL) | Ki [3]: < 1 nM | Ki [4]: > 10 nM | TIG MPC4 SHV-5 ec308 [5]: Y (key: X: MIC of less than 1 ng/mL; Y: MIC of 1 μg/mL to 10 μg/mL; Z: MIC of greater than 10 μg/mL) | Ki [6]: > 10 nM | AZT MPC4 KPC-2 KP1004 [7]: Y (MIC of 1 μg/mL to 10 μg/mL) | % Monomer in 1 mg/mL salt solution [8]: 98.3% | TIG MPC4 CTX-M-14 KP1005 [9]: Y (MIC of 1 μg/mL to 10 μg/mL) | Ki [10]: > 10 nM | Ki [11]: < 1 nM | AZT MPC4 ECL1002 [12]: Y (MIC of 1 μg/mL to 10 μg/mL) | TIG MPC4 TEM-10 ec302 [13]: Z (key: X: MIC of less than 1 ng/mL; Y: MIC of 1 μg/mL to 10 μg/mL; Z: MIC of greater than 10 μg/mL) | TIG MPC4 ECL1002 [14]: Y (MIC of 1 μg/mL to 10 μg/mL) | Ki [15]: 1 to 10 nM | TIG MPC4 SHV-12 KP1010 [16]: X (key: X: MIC of less than 1 μg/mL; Y: MIC of 1 μg/mL to 10 μg/mL; Z: MIC of greater than 10 μg/mL) | TIG MPC4 CTX-M-15 KP1009 [17]: Y (MIC of 1 μg/mL to 10 μg/mL) | AZT MPC4 TEM-10 ec302 [18]: Y (MIC of 1 μg/mL to 10 μg/mL) | AZT MPC4 CMY-6 EC1010 [19]: Y (key: X: MIC of less than 1 ng/mL; Y: MIC of 1 μg/mL to 10 μg/mL; Z: MIC of greater than 10 μg/mL) | AZT MPC4 CTX-M-14 KP1005 [20]: Y (MIC of 1 μg/mL to 10 μg/mL) | BPM MPC1 OXA-48 KP1086 [21]: Z (MIC of greater than 10 μg/mL) | AZT MPC4 CTX-M-15 KP1009 [22]: Y (key: X: MIC of less than 1 ng/mL; Y: MIC of 1 μg/mL to 10 μg/mL; Z: MIC of greater than 10 μg/mL)

Nc1nnc(C(=O)N[C@H]2Cc3ccc(F)c(C(=O)O)c3OB2O)s1 [Compound 8, (R)-3-(5-amino-1,3,4-thiadiazole-2-carboxamido)-7-fluoro-2-hydroxy-3,4-dihydro-2H-benzo[e][1,2]oxaborinine-8-carboxylic acid]
BPM MPC1 KP1004 KPC-2 [1]: X (MIC of less than 1 μg/mL) | TIG MPC4 CMY-6 EC1010 [2]: X (MIC of less than 1 μg/mL) | Ki [3]: < 1 nM | Ki [4]: > 10 nM | TIG MPC4 SHV-5 ec308 [5]: X (key: X: MIC of less than 1 μg/mL; Y: MIC of 1 μg/mL to 10 μg/mL; Z: MIC of greater than 10 μg/mL) | Ki [6]: > 10 nM | AZT MPC4 KPC-2 KP1004 [7]: Y (MIC of 1 μg/mL to 10 μg/mL) | TIG MPC4 CTX-M-14 KP1005 [9]: Y (MIC of 1 μg/mL to 10 μg/mL) | Ki [10]: > 10 nM | Ki [11]: < 1 nM | AZT MPC4 ECL1002 [12]: Y (MIC of 1 μg/mL to 10 μg/mL) | TIG MPC4 TEM-10 ec302 [13]: Y (key: X: MIC of less than 1 ng/mL; Y: MIC of 1 μg/mL to 10 μg/mL; Z: MIC of greater than 10 μg/mL) | TIG MPC4 ECL1002 [14]: Y (MIC of 1 μg/mL to 10 μg/mL) | Ki [15]: < 1 nM | TIG MPC4 SHV-12 KP1010 [16]: X (key: X: MIC of less than 1 μg/mL; Y: MIC of 1 μg/mL to 10 μg/mL; Z: MIC of greater than 10 μg/mL) | TIG MPC4 CTX-M-15 KP1009 [17]: Y (MIC of 1 μg/mL to 10 μg/mL) | AZT MPC4 TEM-10 ec302 [18]: Y (MIC of 1 μg/mL to 10 μg/mL) | AZT MPC4 CMY-6 EC1010 [19]: Y (key: X: MIC of less than 1 ng/mL; Y: MIC of 1 μg/mL to 10 μg/mL; Z: MIC of greater than 10 μg/mL) | AZT MPC4 CTX-M-14 KP1005 [20]: Y (MIC of 1 μg/mL to 10 μg/mL) | BPM MPC1 OXA-48 KP1086 [21]: Y (MIC of 1 μg/mL to 10 μg/mL) | AZT MPC4 CTX-M-15 KP1009 [22]: Y (key: X: MIC of less than 1 ng/mL; Y: MIC of 1 μg/mL to 10 μg/mL; Z: MIC of greater than 10 μg/mL)
